# From ChEMBL document CHEMBL1201861, “Genomics of Drug Sensitity in Cancer screening data, Wellcome Trust Sanger Institute”
# Columns and labels:
# Experiment in all cases: cells
# [1] = tested on: HMV-2 cell line; assay type: functional, cell-based, Homo sapiens; conditions: Homo sapiens, HMV-2;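 note: growth inhibition of HMV-II cells, read out with a cell viability assay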
# Description: SANGER: Inhibition of human HMV-II cell growth in a cell viability assay.
# [2] = tested on: SF-126; assay type: functional, cell-based, Homo sapiens; conditions: Homo sapiens, SF-126;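 note: growth inhibition of human SF126 cells, read out with a cell viability assay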
# Description: SANGER: Inhibition of human SF126 cell growth in a cell viability assay.
# [3] = tested on: BB49-HNC; assay type: functional, cell-based, Homo sapiens; conditions: Homo sapiens, BB49-HNC;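 note: cell viability assay read-out, reported as inhibition of BB49-HNC cell growth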
# Description: SANGER: Inhibition of human BB49-HNC cell growth in a cell viability assay.
# [4] = tested on: TYK-nu; assay type: functional, cell-based, Homo sapiens; conditions: Homo sapiens, TYK-nu;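 note: growth inhibition of human TYK-nu cells, read out by a cell viability assay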
# Description: SANGER: Inhibition of human TYK-nu cell growth in a cell viability assay.
# [5] = tested on: KYSE-520 cell line; assay type: functional, cell-based, Homo sapiens; conditions: Homo sapiens, KYSE-520;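 note: growth inhibition of human KYSE-520 cells, read out with a viability assay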
# Description: SANGER: Inhibition of human KYSE-520 cell growth in a cell viability assay.
# [6] = tested on: SCC-25; assay type: functional, cell-based, Homo sapiens; conditions: Homo sapiens, SCC-25;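 note: growth inhibition of SCC-25 cells, measured with a cell viability assay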
# Description: SANGER: Inhibition of human SCC-25 cell growth in a cell viability assay.
# [7] = tested on: KNS-81-FD; assay type: functional, cell-based, Homo sapiens; conditions: Homo sapiens, KNS-81-FD;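 note: growth inhibition of KNS-81-FD cells, read out with a cell viability assay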
# Description: SANGER: Inhibition of human KNS-81-FD cell growth in a cell viability assay.
# [8] = tested on: SNU-5; assay type: functional, cell-based; conditions: Homo sapiens;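 note: cell viability readout used to measure growth inhibition in human NCI-SNU-5 cells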
# Description: SANGER: Inhibition of human NCI-SNU-5 cell growth in a cell viability assay.
# [9] = tested on: OVCAR-3; assay type: functional, cell-based, Homo sapiens; conditions: Homo sapiens, OVCAR-3;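 note: growth inhibition of human OVCAR-3 cells, determined by a cell viability assay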
# Description: SANGER: Inhibition of human OVCAR-3 cell growth in a cell viability assay.
# [10] = tested on: LC-2-ad; assay type: functional, cell-based, Homo sapiens; conditions: Homo sapiens, LC-2-ad;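 note: growth inhibition of human LC-2-ad cells, read out with a cell viability assay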
# Description: SANGER: Inhibition of human LC-2-ad cell growth in a cell viability assay.
# [11] = tested on: L-363; assay type: functional, cell-based; conditions: Homo sapiens
# Description: SANGER: Inhibition of human L-363 cell growth in a cell viability assay.
# [12] = tested on: TGBC24TKB; assay type: functional, cell-based, Homo sapiens; conditions: Homo sapiens, TGBC24TKB;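 note: growth inhibition of human TGBC24TKB cells, read out with a cell viability assay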
# Description: SANGER: Inhibition of human TGBC24TKB cell growth in a cell viability assay.
# [13] = tested on: LoVo; assay type: functional, cell-based; conditions: Homo sapiens;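 note: growth inhibition of human LoVo cells, read out with a cell viability assay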
# Description: SANGER: Inhibition of human LoVo cell growth in a cell viability assay.
# [14] = tested on: FTC-133; assay type: functional, cell-based, Homo sapiens; conditions: Homo sapiens, FTC-133
# [15] = tested on: NCI-H1355; assay type: functional, cell-based, Homo sapiens; conditions: Homo sapiens, NCI-H1355;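 note: growth inhibition of human NCI-H1355 cells, read out by a cell viability assay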
# Description: SANGER: Inhibition of human NCI-H1355 cell growth in a cell viability assay.
# [16] = tested on: NB10; assay type: functional, cell-based, Homo sapiens; conditions: Homo sapiens, NB10;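 note: growth inhibition of NB10 cells, read out by a cell viability assay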
# Description: SANGER: Inhibition of human NB10 cell growth in a cell viability assay.
# [17] = tested on: KYSE-510; assay type: functional, cell-based, Homo sapiens; conditions: Homo sapiens, KYSE-510;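 note: cell viability readout used to measure how strongly growth of the cell line is suppressed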
# Description: SANGER: Inhibition of human KYSE-510 cell growth in a cell viability assay.
# [18] = tested on: RT-112; assay type: functional, cell-based, Homo sapiens; conditions: Homo sapiens, RT-112
# Description: SANGER: Inhibition of human RT-112 cell growth in a cell viability assay.
# [19] = tested on: NCI-H1650; assay type: functional, cell-based, Homo sapiens; conditions: Homo sapiens, NCI-H1650;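 note: growth inhibition of human NCI-H1650 cells measured by a cell viability assay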
# Description: SANGER: Inhibition of human NCI-H1650 cell growth in a cell viability assay.
# [20] = tested on: SW-620; assay type: functional, cell-based, Homo sapiens; conditions: Homo sapiens, SW-620;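 note: growth inhibition of human SW-620 cells, measured by a cell viability assay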
# Description: SANGER: Inhibition of human SW620 cell growth in a cell viability assay.
# [21] = tested on: A2780; assay type: functional, cell-based, Homo sapiens; conditions: Homo sapiens, A2780;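 note: growth inhibition of A2780 cells, read out with a cell viability assay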
# Description: SANGER: Inhibition of human A2780 cell growth in a cell viability assay.
# [22] = tested on: MS-1; assay type: functional, cell-based; conditions: Homo sapiens;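 note: growth inhibition of MS-1 cells, read out by cell viability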
# Description: SANGER: Inhibition of human MS-1 cell growth in a cell viability assay.
# [23] = tested on: TGW; assay type: functional, cell-based; conditions: Homo sapiens;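 note: growth inhibition of human TGW cells, read out with a cell viability assay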
# Description: SANGER: Inhibition of human TGW cell growth in a cell viability assay.
# [24] = tested on: RKO; assay type: functional, cell-based, Homo sapiens; conditions: Homo sapiens, RKO;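 note: growth inhibition of human RKO cells, read out with a cell viability assay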
# Description: SANGER: Inhibition of human RKO cell growth in a cell viability assay.
# [25] = tested on: KYSE-70 cell line; assay type: functional, cell-based, Homo sapiens; conditions: Homo sapiens, KYSE-70;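 note: cell viability assay read-out, with IC50 expressing suppression of KYSE-70 cell growth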
# Description: SANGER: Inhibition of human KYSE-70 cell growth in a cell viability assay.
# [26] = tested on: CHL-1; assay type: functional, cell-based, Homo sapiens; conditions: Homo sapiens, CHL-1;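 note: cell growth inhibition, read out with a cell viability assay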
# Description: SANGER: Inhibition of human CHL-1 cell growth in a cell viability assay.
# [27] = tested on: NCI-H810; assay type: functional, cell-based, Homo sapiens; conditions: Homo sapiens, NCI-H810;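 note: IC50 reflects inhibition of cancer cell line growth, read out with a cell viability assay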
# Description: SANGER: Inhibition of human NCI-H810 cell growth in a cell viability assay.
# [28] = tested on: AN3-CA; assay type: functional, cell-based; conditions: Homo sapiens;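 note: growth inhibition of human AN3-CA cells measured by a cell viability assay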
# Description: SANGER: Inhibition of human AN3-CA cell growth in a cell viability assay.
# [29] = tested on: SK-MEL-24; assay type: functional, cell-based; conditions: Homo sapiens;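 note: growth inhibition read out by a cell viability assay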
# Description: SANGER: Inhibition of human SK-MEL-24 cell growth in a cell viability assay.
# [30] = tested on: MN-60; assay type: functional, cell-based; conditions: Homo sapiens;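 note: growth inhibition of the MN-60 cell line, determined with a cell viability assay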
# Description: SANGER: Inhibition of human MN-60 cell growth in a cell viability assay.
# [31] = tested on: ES5; assay type: functional, cell-based, Homo sapiens; conditions: Homo sapiens, ES5;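 note: growth inhibition of human ES5 cells, read out by a cell viability assay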
# Description: SANGER: Inhibition of human ES5 cell growth in a cell viability assay.
# [32] = tested on: SNU-387; assay type: functional, cell-based, Homo sapiens; conditions: Homo sapiens, SNU-387
# Description: SANGER: Inhibition of human SNU-387 cell growth in a cell viability assay.
# [33] = tested on: 8505C; assay type: functional, cell-based, Homo sapiens; conditions: Homo sapiens, 8505C
# Description: SANGER: Inhibition of human 8505C cell growth in a cell viability assay.
# [34] = tested on: 786-0; assay type: functional, cell-based, Homo sapiens; conditions: Homo sapiens
# Description: SANGER: Inhibition of human 786-0 cell growth in a cell viability assay.
# [35] = tested on: HCC1954; assay type: functional, cell-based, Homo sapiens; conditions: Homo sapiens, HCC1954;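 note: growth inhibition of human HCC1954 cells, read out with a cell viability assay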
# Description: SANGER: Inhibition of human HCC1954 cell growth in a cell viability assay.
# [36] = tested on: SCH; assay type: functional, cell-based, Homo sapiens; conditions: Homo sapiens, SCH;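 note: growth inhibition of human SCH cells, read out in a cell viability assay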
# Description: SANGER: Inhibition of human SCH cell growth in a cell viability assay.
# [37] = tested on: LOX IMVI; assay type: functional, cell-based; conditions: Homo sapiens
# Description: SANGER: Inhibition of human LOXIMVI cell growth in a cell viability assay.
# [38] = tested on: MEG-01; assay type: functional, cell-based; conditions: Homo sapiens;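 note: growth inhibition of MEG-01 cells, read out by a cell viability assay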
# Description: SANGER: Inhibition of human MEG-01 cell growth in a cell viability assay.
# [39] = tested on: TE-10; assay type: functional, cell-based, Homo sapiens; conditions: Homo sapiens, TE-10;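 note: growth inhibition of TE-10 cells, measured by a cell viability assay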
# Description: SANGER: Inhibition of human TE-10 cell growth in a cell viability assay.
# [40] = tested on: KP-N-YN; assay type: functional, cell-based; conditions: Homo sapiens;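 note: growth inhibition of KP-N-YN cells, read out with a cell viability assay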
# Description: SANGER: Inhibition of human KP-N-YN cell growth in a cell viability assay.
# [41] = tested on: HCE-T; assay type: functional, cell-based, Homo sapiens; conditions: Homo sapiens, HCE-T;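 note: cell viability assay read-out, reporting inhibition of HCE-T cell growth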
# Description: SANGER: Inhibition of human HCE-T cell growth in a cell viability assay.
# [42] = tested on: Capan-2; assay type: functional, cell-based, Homo sapiens; conditions: Homo sapiens, Capan-2;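 note: Capan-2 cell growth inhibition, read out with a viability assay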
# Description: SANGER: Inhibition of human Capan-2 cell growth in a cell viability assay.
# [43] = tested on: GB-1; assay type: functional, cell-based, Homo sapiens; conditions: Homo sapiens, GB-1;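 note: growth of GB-1 cells judged by a viability assay, IC50 marks the concentration inhibiting growth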
# Description: SANGER: Inhibition of human GB-1 cell growth in a cell viability assay.
# [44] = tested on: NB7; assay type: functional, cell-based; conditions: Homo sapiens;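 note: growth inhibition of NB7 cells, read out with a cell viability assay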
# Description: SANGER: Inhibition of human NB7 cell growth in a cell viability assay.
# [45] = tested on: SK-LU-1; assay type: functional, cell-based, Homo sapiens; conditions: Homo sapiens, SK-LU-1;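 note: cell viability assay measuring growth inhibition of human SK-LU-1 cells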
# Description: SANGER: Inhibition of human SK-LU-1 cell growth in a cell viability assay.
# [46] = tested on: NCI-H520; assay type: functional, cell-based, Homo sapiens; conditions: Homo sapiens, NCI-H520;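 note: growth inhibition of NCI-H520 cells, measured by a cell viability assay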
# Description: SANGER: Inhibition of human NCI-H520 cell growth in a cell viability assay.
# [47] = tested on: HuP-T4; assay type: functional, cell-based, Homo sapiens; conditions: Homo sapiens, HuP-T4;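 note: cell viability assay measuring how much HuP-T4 cell growth is inhibited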
# Description: SANGER: Inhibition of human HuP-T4 cell growth in a cell viability assay.
# [48] = tested on: OCI-AML2; assay type: functional, cell-based; conditions: Homo sapiens;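 note: growth inhibition of OCI-AML2 cells, read out with a cell viability assay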
# Description: SANGER: Inhibition of human OCI-AML2 cell growth in a cell viability assay.
# [49] = tested on: SJSA-1; assay type: functional, cell-based, Homo sapiens; conditions: Homo sapiens, SJSA-1;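 note: growth inhibition of human SJSA-1 cells, read out through a cell viability measurement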
# Description: SANGER: Inhibition of human SJSA-1 cell growth in a cell viability assay.
# [50] = tested on: ES7; assay type: functional, cell-based, Homo sapiens; conditions: Homo sapiens, ES7;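 note: growth inhibition of cultured human ES7 cells, read out as cell viability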
# Description: SANGER: Inhibition of human ES7 cell growth in a cell viability assay.
# [51] = tested on: JVM-3; assay type: functional, cell-based; conditions: Homo sapiens;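 note: growth inhibition of human JVM-3 cells, read out with a cell viability assay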
# Description: SANGER: Inhibition of human JVM-3 cell growth in a cell viability assay.
# [52] = tested on: HuTu80; assay type: functional, cell-based, Homo sapiens, HUTU-80; conditions: Homo sapiens, HuTu80;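 note: growth inhibition of HuTu80 human cells, determined with a cell viability readout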
# Description: SANGER: Inhibition of human HUTU-80 cell growth in a cell viability assay.
# [53] = tested on: YAPC; assay type: functional, cell-based, Homo sapiens; conditions: Homo sapiens, YAPC;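 note: growth inhibition of YAPC cells, measured with a cell viability assay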
# Description: SANGER: Inhibition of human YAPC cell growth in a cell viability assay.
structure (smiles),measurement,setting,value
C=CCNC1=C2C[C@@H](C)C[C@H](OC)[C@H](O)[C@@H](C)/C=C(\C)[C@H](OC(N)=O)[C@@H](OC)/C=C\C=C(/C)C(=O)NC(=CC1=O)C2=O [TANESPIMYCIN],IC50,[1],120 nM
same,IC50,[2],> 1000 nM
same,IC50,[3],42.4 nM
same,IC50,[4],39.9 nM
same,IC50,[5],182 nM
same,IC50,[6],246 nM
same,IC50,[7],184 nM
same,IC50,[8],305 nM
same,IC50,[9],593 nM
same,IC50,[10],141 nM
same,IC50,[11],82.1 nM
same,IC50,[12],> 1000 nM
same,IC50,[13],> 1000 nM
same,IC50,[14],165 nM
same,IC50,[15],281 nM
same,IC50,[16],> 1000 nM
same,IC50,[17],46.5 nM
same,IC50,[18],140 nM
same,IC50,[19],201 nM
same,IC50,[20],70.3 nM
same,IC50,[21],25.3 nM
same,IC50,[22],> 1000 nM
same,IC50,[23],> 1000 nM
same,IC50,[24],118 nM
same,IC50,[25],333 nM
same,IC50,[26],22.5 nM
same,IC50,[27],> 1000 nM
same,IC50,[28],50 nM
same,IC50,[29],139 nM
same,IC50,[30],> 1000 nM
same,IC50,[31],> 1000 nM
same,IC50,[32],> 1000 nM
same,IC50,[33],1000 nM
same,IC50,[34],154 nM
same,IC50,[35],> 1000 nM
same,IC50,[36],> 1000 nM
same,IC50,[37],58.7 nM
same,IC50,[38],> 1000 nM
same,IC50,[39],414 nM
same,IC50,[40],> 1000 nM
same,IC50,[41],386 nM
same,IC50,[42],193 nM
same,IC50,[43],> 1000 nM
same,IC50,[44],> 1000 nM
same,IC50,[45],30.8 nM
same,IC50,[46],387 nM
same,IC50,[47],129 nM
same,IC50,[48],654 nM
same,IC50,[49],318 nM
same,IC50,[50],> 1000 nM
same,IC50,[51],638 nM
same,IC50,[52],> 1000 nM
same,IC50,[53],451 nM
